Blank lines part the entries; values can stand above or below the compound they belong to.
Experiments:
Angiopoietin-1 receptor [1] = target: T1, Angiopoietin-1 receptor (Homo sapiens, UniProt Q02763); assay: Inhibition of Tie2 after 1 hr
Angiopoietin-1 receptor [2] = target: T1, Angiopoietin-1 receptor; assay: Inhibition of Tie2 autophosphorylation by cell based assay
[3] = target: T2, Ephrin type-B receptor 4 (Homo sapiens) (UniProt P54760); assay: Inhibition of EphB4 at 10 uM after 1 hr
T2 sequence (whole entry): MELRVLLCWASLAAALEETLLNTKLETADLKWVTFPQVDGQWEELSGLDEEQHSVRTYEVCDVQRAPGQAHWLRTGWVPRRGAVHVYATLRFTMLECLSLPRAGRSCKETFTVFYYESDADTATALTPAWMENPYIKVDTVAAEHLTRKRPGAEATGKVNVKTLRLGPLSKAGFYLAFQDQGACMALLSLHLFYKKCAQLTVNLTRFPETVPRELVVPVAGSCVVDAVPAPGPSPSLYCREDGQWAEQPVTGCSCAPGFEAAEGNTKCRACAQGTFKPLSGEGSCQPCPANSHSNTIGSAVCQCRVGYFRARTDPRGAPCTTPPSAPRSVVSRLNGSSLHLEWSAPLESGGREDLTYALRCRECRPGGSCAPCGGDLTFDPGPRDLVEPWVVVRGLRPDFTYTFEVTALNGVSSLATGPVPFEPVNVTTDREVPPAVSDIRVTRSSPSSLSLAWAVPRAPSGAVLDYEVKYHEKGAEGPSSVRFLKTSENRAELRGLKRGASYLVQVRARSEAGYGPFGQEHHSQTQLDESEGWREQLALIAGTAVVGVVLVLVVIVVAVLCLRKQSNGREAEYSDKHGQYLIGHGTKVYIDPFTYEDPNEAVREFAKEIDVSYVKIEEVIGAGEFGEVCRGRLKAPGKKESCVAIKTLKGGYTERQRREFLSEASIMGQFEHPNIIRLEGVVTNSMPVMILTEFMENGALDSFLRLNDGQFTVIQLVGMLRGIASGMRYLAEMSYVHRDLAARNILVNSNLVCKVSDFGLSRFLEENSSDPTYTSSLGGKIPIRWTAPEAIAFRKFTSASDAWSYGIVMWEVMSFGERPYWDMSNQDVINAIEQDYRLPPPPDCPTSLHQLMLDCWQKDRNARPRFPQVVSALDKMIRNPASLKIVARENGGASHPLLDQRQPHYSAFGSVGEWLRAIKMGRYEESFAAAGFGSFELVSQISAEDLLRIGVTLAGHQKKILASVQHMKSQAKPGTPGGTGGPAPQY

Ephrin type-A receptor 2 = Ephrin type-A receptor 2 (Homo sapiens, UniProt P29317); assay: Inhibition of EPHA2 after 1 hr
[4] = target: Vascular endothelial growth factor receptor 2 (Homo sapiens, UniProt P35968); assay: Inhibition of VEGFR2 after 1 hr
[5] = target: Vascular endothelial growth factor receptor 3 (Homo sapiens, UniProt P35916); assay: Inhibition of VEGFR3 after 1 hr
[6] = target: Tyrosine-protein kinase BTK (Homo sapiens, UniProt Q06187); assay: Inhibition of Btk after 1 hr
[7] = target: Tyrosine-protein kinase ABL1 (Homo sapiens, UniProt P00519); assay: Inhibition of Abl1 after 1 hr
Ephrin type-B receptor 4 = target: T3, Ephrin type-B receptor 4 (Homo sapiens, UniProt P54760); assay: Inhibition of EphB4 after 1 hr
T3 sequence (P54760 whole entry): T2 sequence (whole entry)

[8] = target: Tyrosine-protein kinase Lyn (Homo sapiens, UniProt P07948); assay: Inhibition of Lyn after 1 hr
[9] = target: Platelet-derived growth factor receptor beta (Homo sapiens, UniProt P09619); assay: Inhibition of PDGFRbeta after 1 hr
[10] = target: T4, Receptor-type tyrosine-protein kinase FLT3 (Homo sapiens, UniProt P36888); assay: Inhibition of Flt3 after 1 hr
T4 sequence (P36888 whole entry): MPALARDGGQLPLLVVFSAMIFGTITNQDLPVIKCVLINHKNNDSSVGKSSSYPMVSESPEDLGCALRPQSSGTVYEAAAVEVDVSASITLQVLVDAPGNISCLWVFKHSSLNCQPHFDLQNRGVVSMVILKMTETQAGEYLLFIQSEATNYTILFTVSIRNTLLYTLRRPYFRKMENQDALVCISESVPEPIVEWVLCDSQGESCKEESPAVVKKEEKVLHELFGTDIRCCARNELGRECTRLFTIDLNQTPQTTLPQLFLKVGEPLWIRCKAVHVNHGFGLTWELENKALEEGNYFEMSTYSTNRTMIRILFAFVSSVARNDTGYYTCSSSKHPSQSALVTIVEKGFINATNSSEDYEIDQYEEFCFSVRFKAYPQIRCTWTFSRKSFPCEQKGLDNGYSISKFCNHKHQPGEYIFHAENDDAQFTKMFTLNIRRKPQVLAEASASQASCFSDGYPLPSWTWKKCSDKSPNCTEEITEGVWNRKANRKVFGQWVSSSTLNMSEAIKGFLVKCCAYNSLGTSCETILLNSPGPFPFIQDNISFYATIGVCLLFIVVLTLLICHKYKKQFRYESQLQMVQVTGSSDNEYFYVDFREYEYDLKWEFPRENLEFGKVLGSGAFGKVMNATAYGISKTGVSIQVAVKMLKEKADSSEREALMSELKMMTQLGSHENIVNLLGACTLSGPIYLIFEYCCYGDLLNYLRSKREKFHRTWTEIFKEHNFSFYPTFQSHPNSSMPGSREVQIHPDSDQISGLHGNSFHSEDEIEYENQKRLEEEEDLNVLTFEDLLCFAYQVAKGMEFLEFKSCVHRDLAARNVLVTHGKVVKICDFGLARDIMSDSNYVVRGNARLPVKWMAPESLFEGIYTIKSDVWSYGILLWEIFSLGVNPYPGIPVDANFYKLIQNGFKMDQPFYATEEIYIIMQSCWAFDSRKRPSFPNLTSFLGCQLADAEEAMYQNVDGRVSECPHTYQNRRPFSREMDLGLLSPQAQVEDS

[11] = target: Vascular endothelial growth factor receptor 1 (Homo sapiens, UniProt P17948); assay: Inhibition of VEGFR1 after 1 hr

T1 sequence (Q02763 whole entry): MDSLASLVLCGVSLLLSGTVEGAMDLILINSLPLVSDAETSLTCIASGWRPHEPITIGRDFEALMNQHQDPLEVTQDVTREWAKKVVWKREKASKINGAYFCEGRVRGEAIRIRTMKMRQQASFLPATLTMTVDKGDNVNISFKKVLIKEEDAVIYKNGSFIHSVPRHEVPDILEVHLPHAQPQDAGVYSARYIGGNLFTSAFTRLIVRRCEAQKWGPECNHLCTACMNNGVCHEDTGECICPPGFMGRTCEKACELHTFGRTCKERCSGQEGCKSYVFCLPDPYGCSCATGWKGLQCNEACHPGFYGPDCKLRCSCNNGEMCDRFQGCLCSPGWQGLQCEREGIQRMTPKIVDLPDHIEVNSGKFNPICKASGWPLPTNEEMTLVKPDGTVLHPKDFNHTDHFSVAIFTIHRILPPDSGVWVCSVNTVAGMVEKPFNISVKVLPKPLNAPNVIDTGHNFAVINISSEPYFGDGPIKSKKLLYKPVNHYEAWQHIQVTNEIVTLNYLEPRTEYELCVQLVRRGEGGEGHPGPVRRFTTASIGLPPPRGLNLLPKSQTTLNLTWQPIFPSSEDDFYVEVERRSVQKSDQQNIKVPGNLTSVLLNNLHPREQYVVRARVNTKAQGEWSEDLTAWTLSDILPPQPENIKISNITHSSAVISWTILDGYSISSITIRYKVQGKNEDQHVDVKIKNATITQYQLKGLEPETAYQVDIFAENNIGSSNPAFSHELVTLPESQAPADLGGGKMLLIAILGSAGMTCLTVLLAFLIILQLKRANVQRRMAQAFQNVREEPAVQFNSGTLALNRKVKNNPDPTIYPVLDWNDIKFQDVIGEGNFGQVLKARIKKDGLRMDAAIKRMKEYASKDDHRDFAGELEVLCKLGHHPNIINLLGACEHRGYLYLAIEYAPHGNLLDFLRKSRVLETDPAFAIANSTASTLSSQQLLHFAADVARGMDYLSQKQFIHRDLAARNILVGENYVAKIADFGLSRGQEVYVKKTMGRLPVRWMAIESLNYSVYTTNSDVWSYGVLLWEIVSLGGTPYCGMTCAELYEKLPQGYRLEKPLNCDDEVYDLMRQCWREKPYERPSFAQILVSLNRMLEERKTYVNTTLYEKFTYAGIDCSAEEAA
Sequence of Vascular endothelial growth factor receptor 2 (P35968 whole entry): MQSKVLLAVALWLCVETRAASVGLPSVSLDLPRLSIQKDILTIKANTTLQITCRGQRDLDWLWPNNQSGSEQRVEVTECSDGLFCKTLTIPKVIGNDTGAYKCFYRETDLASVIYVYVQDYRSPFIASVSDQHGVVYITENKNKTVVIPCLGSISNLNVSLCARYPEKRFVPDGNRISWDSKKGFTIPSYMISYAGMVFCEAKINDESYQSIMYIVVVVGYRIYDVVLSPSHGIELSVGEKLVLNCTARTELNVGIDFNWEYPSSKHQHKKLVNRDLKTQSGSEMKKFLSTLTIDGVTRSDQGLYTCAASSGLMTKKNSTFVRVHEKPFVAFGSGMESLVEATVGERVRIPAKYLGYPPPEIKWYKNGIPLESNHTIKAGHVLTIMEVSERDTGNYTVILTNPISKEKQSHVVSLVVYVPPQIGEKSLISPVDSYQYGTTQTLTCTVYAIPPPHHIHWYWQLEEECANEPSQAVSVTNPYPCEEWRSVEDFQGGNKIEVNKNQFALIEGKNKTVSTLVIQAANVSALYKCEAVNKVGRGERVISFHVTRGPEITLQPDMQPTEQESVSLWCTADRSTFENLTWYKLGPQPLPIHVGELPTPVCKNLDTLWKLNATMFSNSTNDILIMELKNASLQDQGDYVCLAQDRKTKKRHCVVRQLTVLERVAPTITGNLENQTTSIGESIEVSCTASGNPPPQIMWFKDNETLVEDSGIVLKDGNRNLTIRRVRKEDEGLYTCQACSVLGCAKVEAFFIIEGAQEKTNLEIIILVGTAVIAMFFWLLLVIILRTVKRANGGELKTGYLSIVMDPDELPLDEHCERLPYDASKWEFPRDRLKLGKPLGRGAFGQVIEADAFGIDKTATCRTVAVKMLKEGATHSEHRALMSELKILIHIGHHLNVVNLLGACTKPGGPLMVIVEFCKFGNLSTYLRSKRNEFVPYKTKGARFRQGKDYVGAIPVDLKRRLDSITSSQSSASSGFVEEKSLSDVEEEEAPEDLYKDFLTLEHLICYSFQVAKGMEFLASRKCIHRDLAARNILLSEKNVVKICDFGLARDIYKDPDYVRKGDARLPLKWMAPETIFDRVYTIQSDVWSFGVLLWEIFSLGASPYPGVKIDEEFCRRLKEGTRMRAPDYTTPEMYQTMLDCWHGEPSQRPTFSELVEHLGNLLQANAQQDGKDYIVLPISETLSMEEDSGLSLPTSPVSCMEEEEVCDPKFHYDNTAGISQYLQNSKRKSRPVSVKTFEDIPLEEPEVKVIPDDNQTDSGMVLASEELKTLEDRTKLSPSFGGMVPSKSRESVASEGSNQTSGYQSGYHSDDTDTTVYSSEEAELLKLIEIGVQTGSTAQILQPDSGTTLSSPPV
Sequence of Tyrosine-protein kinase BTK (Q06187 whole entry): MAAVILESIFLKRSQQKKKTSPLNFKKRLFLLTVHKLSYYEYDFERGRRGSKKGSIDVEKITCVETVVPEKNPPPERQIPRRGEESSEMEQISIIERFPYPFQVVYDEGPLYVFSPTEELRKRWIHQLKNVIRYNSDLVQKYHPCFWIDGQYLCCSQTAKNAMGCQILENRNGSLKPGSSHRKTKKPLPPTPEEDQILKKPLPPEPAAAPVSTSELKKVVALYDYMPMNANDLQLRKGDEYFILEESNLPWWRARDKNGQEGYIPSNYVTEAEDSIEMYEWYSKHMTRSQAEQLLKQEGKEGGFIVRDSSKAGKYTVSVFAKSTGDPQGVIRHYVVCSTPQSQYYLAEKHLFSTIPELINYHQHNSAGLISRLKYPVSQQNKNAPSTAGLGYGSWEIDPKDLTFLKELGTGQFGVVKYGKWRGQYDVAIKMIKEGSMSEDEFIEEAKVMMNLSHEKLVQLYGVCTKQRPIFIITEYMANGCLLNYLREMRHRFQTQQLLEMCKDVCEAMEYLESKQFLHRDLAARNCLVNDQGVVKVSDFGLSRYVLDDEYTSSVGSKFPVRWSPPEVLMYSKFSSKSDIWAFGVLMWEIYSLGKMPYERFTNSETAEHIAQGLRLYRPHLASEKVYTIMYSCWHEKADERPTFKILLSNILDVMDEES
Sequence of Platelet-derived growth factor receptor beta (P09619 whole entry): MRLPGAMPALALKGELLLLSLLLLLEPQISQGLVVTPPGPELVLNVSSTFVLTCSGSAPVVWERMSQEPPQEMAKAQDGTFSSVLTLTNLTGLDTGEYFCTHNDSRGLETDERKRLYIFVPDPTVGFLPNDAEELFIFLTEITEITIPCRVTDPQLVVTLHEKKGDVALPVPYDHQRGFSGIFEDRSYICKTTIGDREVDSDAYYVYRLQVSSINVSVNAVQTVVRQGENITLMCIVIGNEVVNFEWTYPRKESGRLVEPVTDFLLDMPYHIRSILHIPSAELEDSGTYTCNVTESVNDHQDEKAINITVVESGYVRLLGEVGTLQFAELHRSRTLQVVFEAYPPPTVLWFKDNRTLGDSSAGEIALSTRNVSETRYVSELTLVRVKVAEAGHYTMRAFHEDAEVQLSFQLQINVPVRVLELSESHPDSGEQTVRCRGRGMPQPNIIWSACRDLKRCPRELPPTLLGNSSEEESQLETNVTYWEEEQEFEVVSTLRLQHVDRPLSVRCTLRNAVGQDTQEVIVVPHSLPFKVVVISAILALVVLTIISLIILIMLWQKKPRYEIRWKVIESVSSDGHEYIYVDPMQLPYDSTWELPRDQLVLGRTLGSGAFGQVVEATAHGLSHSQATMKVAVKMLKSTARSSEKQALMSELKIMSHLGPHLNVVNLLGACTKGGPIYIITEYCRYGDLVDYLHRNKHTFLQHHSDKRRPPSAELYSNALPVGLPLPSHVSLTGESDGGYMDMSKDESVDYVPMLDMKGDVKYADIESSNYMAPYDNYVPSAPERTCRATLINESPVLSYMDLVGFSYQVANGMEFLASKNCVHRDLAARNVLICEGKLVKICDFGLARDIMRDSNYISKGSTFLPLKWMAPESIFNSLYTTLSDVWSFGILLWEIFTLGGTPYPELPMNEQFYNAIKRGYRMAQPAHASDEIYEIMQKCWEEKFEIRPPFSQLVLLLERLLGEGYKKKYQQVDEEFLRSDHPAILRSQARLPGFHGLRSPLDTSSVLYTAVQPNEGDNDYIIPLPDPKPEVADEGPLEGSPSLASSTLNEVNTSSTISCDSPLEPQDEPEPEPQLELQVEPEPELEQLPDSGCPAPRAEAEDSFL
Sequence of Tyrosine-protein kinase Lyn (P07948 whole entry): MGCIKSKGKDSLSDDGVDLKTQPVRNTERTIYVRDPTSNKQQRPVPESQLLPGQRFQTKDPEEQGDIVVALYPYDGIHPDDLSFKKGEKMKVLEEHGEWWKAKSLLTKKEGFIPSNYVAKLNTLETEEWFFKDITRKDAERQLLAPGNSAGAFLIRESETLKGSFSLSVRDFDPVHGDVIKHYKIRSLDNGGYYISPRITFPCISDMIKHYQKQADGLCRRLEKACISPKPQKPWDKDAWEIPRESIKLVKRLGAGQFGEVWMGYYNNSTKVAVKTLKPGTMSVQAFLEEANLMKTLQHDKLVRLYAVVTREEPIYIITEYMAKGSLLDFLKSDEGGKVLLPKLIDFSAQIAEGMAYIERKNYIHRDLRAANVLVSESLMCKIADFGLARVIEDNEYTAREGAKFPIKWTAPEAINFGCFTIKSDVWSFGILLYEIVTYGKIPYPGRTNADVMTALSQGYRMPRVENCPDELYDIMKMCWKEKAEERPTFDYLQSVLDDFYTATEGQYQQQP

SMILES: COc1ccc(Br)cc1NC(=O)Nc1cccc(-c2cn3ccnc3c(NCc3ccncc3)n2)c1
- IC50 (Angiopoietin-1 receptor [1]): 75 nM
- IC50 (Angiopoietin-1 receptor [2]): 250 nM

SMILES: COc1ccc(C(F)(F)F)cc1NC(=O)Nc1cccc(-c2cn3ccnc3c(NCc3ccncc3)n2)c1
- IC50 (Angiopoietin-1 receptor [1]): 33 nM
- IC50 (Angiopoietin-1 receptor [2]): 50 nM

SMILES: O=C(Nc1cccc(-c2cn3ccnc3c(NCc3ccncc3)n2)c1)Nc1cc(C(F)(F)F)ccc1F
- IC50 (Angiopoietin-1 receptor [1]): 37 nM
- IC50 (Angiopoietin-1 receptor [2]): 100 nM

Results, then the compound that gave them:

- inhibition [3]: 32%
SMILES: O=C(Nc1cccc(-c2cn3ccnc3c(NCc3ccccn3)n2)c1)Nc1cccc(C(F)(F)F)c1

- inhibition [3]: 36%
SMILES: O=C(Nc1cccc(-c2cn3ccnc3c(Nc3ccccc3)n2)c1)Nc1cccc(C(F)(F)F)c1

- IC50 (Ephrin type-A receptor 2): 35 nM
- IC50 (Angiopoietin-1 receptor [1]): 67 nM
- IC50 [4]: 33 nM
- IC50 [5]: 71 nM
- IC50 [6]: 7.8 µM
- IC50 [7]: 14.4 µM
- IC50 (Ephrin type-B receptor 4): 62 nM
- IC50 [8]: 6 µM
- IC50 [9]: 7.7 µM
- IC50 [10]: 2000 nM
- IC50 [11]: 747 nM
SMILES: O=C(Nc1cccc(-c2cn3ccnc3c(NCc3ccncc3)n2)c1)Nc1cccc(C(F)(F)F)c1

— ChEMBL document CHEMBL1153704, “Imidazo[1,2-a]pyrazine diaryl ureas: inhibitors of the receptor tyrosine kinase EphB4” (Bioorg Med Chem Lett, 2009)
